# Columns and labels:
# [1] = system: CHO-K1, Jurkat, L1210, MDA-MB-231, ZR-75-1 and MCF-7 cells; experiment: Reversal of DFMO-induced cytostasis by exogenous spermidine in a variety of mammalian cell lines; type: cell-based; conditions: 50-100 μM BNSD-X
# Experimental: FIGS. 5A, 5B, 5C, 5D, 5E and 5F are graphs representing that a compound used in a method according to a preferred embodiment antagonizes rescue of DFMO-induced cytostasis by exogenous spermidine. In particular, CHO-K1 (A), Jurkat (B), L1210 (C), MDA-MB-231 (D), ZR-75-1 (E) and MCF-7 cells (F) were grown to near confluency or saturation (for 4 to 11 d according to the cell line considered) with the indicated concentrations of spermidine in medium containing 1 mM aminoguanidine, in the presence of DFMO (●), BNSD-X (□), DFMO plus BNSD-X (▪), or in the absence of either agent (∘), and total DNA content per culture was then determined. The optimal concentration of either DFMO (1 to 5 mM) or BNSD-X (50 or 100 μM) was used for the each cell line as determined in pilot experiments. Data are presented as the mean±SD for triplicate cultures from one out of at least three identical experiments for each cell line;
# (§1) To determine the ability of polyamine transport antagonists to potentiate DFMO-induced inhibition of cell proliferation in the presence of exogenous polyamines, cells were grown for the indicated period in growth medium supplemented with 1 mM aminoguanidine, and either DFMO (1 to 5 mM), the indicated transport inhibitor (50 or 100 μM), or the combination thereof, as well as increasing concentrations of spermidine (0.1 to 300 μM). Fresh medium was added every other day, and cell mass was determined at various time points during the period of exponential growth, or at the end of the experimental period. For the latter experiments, the FBS supplement was replaced with dextran-coated charcoal-treated FBS (5%, v/v) plus 0.5 μg/ml insulin in the case of T-47D, ZR-75-1 and MCF-7 cells (U.S. Pat. No. 6,083,496).
# CHO-MG cells = experiment: Potentiation of DFMO-induced cytostasis in polyamine transport-deficient CHO-MG cells; type: cell-based, Chinese hamster; conditions: 2 mM DFMO; 4 d; polyamine transport mutant
# Experimental: FIGS. 9A and 9B are graphs showing that potentiation of DFMO-induced cytostasis by a compound used in a method according to a preferred embodiment of the invention requires a functional polyamine transport system. In particular, CHO-TOR cells (A) and their polyamine transport-deficient mutant subline CHO-MG (B) were grown in medium containing 1 mM aminoguanidine and the indicated concentration of spermidine, in the presence of 2 mM DFMO (●), BNSD-X (□), DFMO+BNSD-X (▪), or vehicle only (∘). Cells were harvested after 4 d for determination of total DNA/well. Data are presented as the mean±SD for triplicate cultures from one representative experiment;
# as §1, with “For the latter experiments, the FBS supplement was replaced with dextran-coated charcoal-treated FBS (5%, v/v) plus 0.5 μg/ml insulin in the case of T-47D, ZR-75-1 and MCF-7 cells (U.S. Pat. No. 6,083,496).” left out
# [2] = system: polyamine transport system; experiment: Time course of [3H]spermidine accumulation in ZR-75-1 cells; type: cell-based, human; conditions: after 8 h
# Experimental: (§2) In particular, exponentially growing T-47D (A) or ZR-75-1 cells (B and C) were transferred to serum-free medium containing 5 μM [^3H]spermidine, and either 200 μM cycloheximide (CHX) (●), 100 μM BNSD-X (□), CHX plus BNSD-X (▪), or vehicle only (∘). Cells were incubated for the time intervals indicated prior to harvesting for detrmination of total intracellular radioactivity. ZR-75-1 cells were either pre-incubated for 48 h in the absence (panel B) or presence of 1 mM DFMO (panel C) prior to the experiment shown; DFMO was also included during the labeling period in the appropriate group. Data are presented as the mean±SD for triplicate cultures from one representative experiment;
# The effect of BNSD-X on the time course of [^3H]spermidine accumulation was determined in ZR-75-1 and T-47D cells pre-incubated in the presence or absence of DFMO before addition of radioactive substrate and the transport inhibitor. Subgroups of cell cultures were also treated with cycloheximide in order to prevent the polyamine-dependent induction of ODC antizyme, which rapidly down-regulates polyamine transport activity through an unknown mechanism (Lessard et al. (1995) J. Biol. Chem. 270, 1685-1694; Coffino et al. (2001) Nat Rev Mol Cell Biol. 2:188-194). […]
# [3] = system: polyamine transport system; experiment: Time course of [3H]spermidine accumulation in T-47D cells; type: cell-based, human
# Experimental: as §2
# The effect of BNSD-X on the time course of [^3H]spermidine accumulation was determined in ZR-75-1 and T-47D cells pre-incubated in the presence or absence of DFMO before addition of radioactive substrate and the transport inhibitor. Subgroups of cell cultures were also treated with cycloheximide in order to prevent the polyamine-dependent induction of ODC antizyme, which rapidly down-regulates polyamine transport activity through an unknown mechanism (Lessard et al. (1995) J. Biol. Chem. 270, 1685-1694; Coffino et al. (2001) Nat Rev Mol Cell Biol. 2:188-194). As expected, [^3H]spermidine accumulation reached a plateau after approximately 2 h in both […], but increased in an approximately linear fashion for the first 6-8 h in the presence of cycloheximide, consistent with relief from feedback repression of polyamine transport as a result of inhibition of antizyme synthesis. At a BNSD-X:spermidine ratio of 20:1, the triamine dimer decreased net [^3H]spermidine uptake in T-47D cells after 8 h by 92% and 80% in the presence or absence of cycloheximide, respectively (FIG. 7A), whereas it inhibited spermidine accumulation by 90 and 65%, respectively, under the same conditions in ZR-75-1 cells (FIG. 7B). […]
smiles,measurement,setting,value
"NCCCN(CCCN)Cc1ccc(CN(CCCN)CCCN)cc1 [28a, N,N,N′,N′-tetrakis-(3-aminopropyl)-p-diaminoxylene]",increase of the spermidine concentration required to fully restore cell proliferation upon treatment with DFMO,[1]; DFMO 1 to 5 mM,10 to 100 fold
same,effect of the inhibitor alone on cell proliferation,"[1]; except L1210 and, to a lesser degree, MCF-7 cells",little or no effect
same,"potentiation of DFMO-induced cytostasis in the absence of exogenous spermidine, CHO-MG",CHO-MG cells,not in the polyamine transport mutant
same,"inhibition of spermidine accumulation, without cycloheximide",[2]; BNSD-X:spermidine 20:1,65%
same,"inhibition of spermidine accumulation, with cycloheximide","[2]; BNSD-X:spermidine 20:1, 200 μM cycloheximide",90%
same,"residual rate of spermidine influx, of the maximal rate of spermidine accumulation","[3]; 20-fold excess of BNSD-X, T-47D and ZR-75-1",8-10%
same,"decrease of net [3H]spermidine uptake, without cycloheximide","[3]; T-47D, after 8 h, BNSD-X:spermidine 20:1",80%
same,"decrease of net [3H]spermidine uptake, with cycloheximide","[3]; T-47D, after 8 h, BNSD-X:spermidine 20:1 (100 μM:5 μM), 200 μM cycloheximide",92%
